The test system of experiment [1] is human monocyte derived DCs. The experiment is described as follows: Example A: DC maturation markers in human monocyte derived DC with NKT cells (FACS). Format: cell-based. Conditions: 100 ng/ml, 36 hours, 10 DC/NKT cell. As to the method: The methodology of Salio, et al., J. Immunol., 167:1188-1197 (2001), incorporated by reference, was followed. In brief, 2×105 human monocyte derived DCs were pulsed with 100 ng/ml of one of Compounds 2, 3, αGal-Cer, or vehicle solution, as a control. For DC pulsing, each of arabinitol ceramide (Compound 1), threitol ceramide (Compound 3), glycerol ceramide (Compound 2) and αGal-Cer was solubilized in vehicle solution (0.5% Tween 20/PBS), and added to the medium of the DC cultures. […] After 36 hours, supernatant was removed from cultures and analyzed for the presence of known DC maturation markers CD83, CD80, CD86, CD25, and CD38, all of which were analyzed via FACS, using well known methods.

Experiment [2] deals with E.G7-OVA tumour cells. Put plainly: Prophylactic challenge with E.G7-OVA tumour cells after co-injection with OVA. Format: in vivo, C57BL/6 mice. The following applies: injected with OVA, challenge 7 days later with 1×10^6 E.G7-OVA s.c. As to the method:
(§1) (A) C57BL/6 mice were co-injected with 1 μg α-GalCer or analog and 800 μg OVA. 6 days later blood samples taken from the tail vein were stained directly ex vivo with fluorescent […]-K^b tetramers and an anti-CD8 antibody and analyzed by flow cytometry. Data are shown as tetramer positive cells as a percentage of CD8^+ cells. (B) 7 days after injection, the mice were challenged in a prophylactic setting with 1×10^6 E.G7-OVA tumour cells s.c. and the size of the tumour monitored over subsequent days.

The subject of experiment [3] is IL-12p40 released by the DC. Put plainly: IL-12p40 ELISA of supernatants of DC/iNKT co-cultures. Format: cell-based, human. The following applies: DC/iNKT co-culture, 24 hours. As to the method: (§2) Different analogs of α-GalCer as indicated or LPS were added to co-cultures of human DC and iNKT cells. (A) Maturation of the DC was assessed after 40 h, gating on CD11c positive cells. Histograms indicate the CD83 and CD86 profiles of DC from different treatments; the percentages indicate the percentage of CD83hi mature DC and the numbers in parenthesis, the mean fluorescence intensity of the population contained within the labeled gate. DC and iNKT cells were co-cultured in the presence of different analogs of α-GalCer for 24 hours. Supernatants were analyzed using ELISA for the presence of (B) IL-12p40 released by the DC and (C) IFN-γ from the iNKT cells. […] Cells were co-cultured in the presence of the indicated concentration of analog and the percentages of DC with increased CD83/CD80 are shown. […] Viability of α-GalCer or analog-pulsed DC was assessed after 40 h co-culture in the presence of iNKT cells by flow cytometry. Cells were stained with propidium iodide and the percentage of live CD11c gated cells remaining in the culture are shown.
(§3) Human monocyte-derived DC were pulsed with 150 ng of different inositol analogs and co-cultured with iNKT cells for 24 h. […] Numbers indicate the mean fluorescence intensity of the histogram gated on CD11c^+ cells.
Release of IL-12p40 (and bioactive p75) by DC is a marker of activation and is thought to play an important role in regulating the profile of the immune response generated in response to those DC (Trinchieri et al, Nat Rev Immunol, 2003, 3; 133-46).
On the technique in general: An ELISA detects its analyte on a solid surface through an enzyme-linked reagent.

The test system of experiment [4] is antigen-specific CD8^+ T cells. The experiment is described as follows: OVA-specific CD8+ T cells after co-injection with OVA ([…]-Kb tetramer). The format is in vivo, C57BL/6 mice. The following applies: 1 μg with 800 μg OVA, 6 days. How it is done:
as §1
Previously we, and others have shown that co-injection of model antigens such as OVA (Silk, Hermans et al, J Clin Invest, 2004, 114; 1800-11, Fujii, Shimizu et al, J Exp Med, 2003, 198; 267-79, Hermans, Silk et al, J Immunol, 2003, 171; 5140-7) and β-galactosidase (Silk, Hermans et al, J Clin Invest, 2004, 114; 1800-11) together with α-GalCer induces enhanced CD8^+, CD4^+ T cell and B cell responses. These were effective for therapy against tumour cells expressing the target antigen. The various analogs were co-injected with OVA into wild type mice and 6 days later the blood examined for the presence of antigen-specific CD8^+ T cells using fluorescent K^b-[…] tetramers.

Experiment [5] relates to IL-4 and IFN-γ. The experiment is described as follows: Serum cytokines after i.v. injection into mice (ELISA). Format: in vivo, C57BL/6 mice. How it is done:
C57BL/6 or iNKT^−/− mice were injected i.v. with 1 μg of vehicle, α-GalCer, analog or 25 μg MPL. Twenty hours after injection splenocytes were stained with antibodies against CD11c, B220 and CD86 and analyzed by flow cytometry. (A) Maturation was assessed by the upregulation of CD86 at the cell surface, gating on DC (CD11c^+). Mean fluorescence intensity for each histogram is indicated. These are representative profiles of two independent experiments. 2, 6 and 18-24 h after injection as described, the mice were bled and the serum tested with ELISA for the presence of (B) IL-4 and (C) IFN-γ released in response to the analog.
Stimulation of iNKT cells by α-GalCer in the context of CD1d rapidly induces release of significant levels of a number of cytokines including IFN-γ and IL-4 (Burdin, Brossay et al, J Immunol, 1998, 161; 3271-81), IL-3 and GM-CSF (Leite-de-Moraes, Lisbonne et al, Eur J Immunol, 2002, 32; 1897-904) with other downstream cell-types including DC (Kitamura, Iwakabe et al, J Exp Med, 1999, 189; 1121-8) and NK cells (Carnaud, Lee et al, J Immunol, 1999, 163; 4647-50) being activated.

The subject of experiment [6] is OVA specific IgG antibodies. The experiment is described as follows: Example D: OVA specific IgG antibodies in serum of immunized mice (ELISA). The format is in vivo. The following applies: ten days following immunization. How it is done:
OVA protein coated ELISA plates, were prepared, using well known methods. Then, blood samples were taken, ten days following immunization, and serum was prepared.
The samples were taken from mice that had been immunized with OVA only, OVA and Compound 1, arabinitol ceramide, OVA and αGal-Cer, or OVA and Compound 2, glycerol ceramide. Additionally, mice were immunized with each of these schedules with MPL added. Serum IgG titers were measured by adding serial dilutions of mouse serum were detected using horseradish peroxidase (HRP) conjugated α-mouse IgG.

The test system of experiment [7] is DCs obtained from the spleen. The experiment is described as follows: Example E: phenotyping of spleen DCs after tail vein injection (CD86). The format is in vivo, mice. The following applies: 1 μg tail vein, 24 h. How it is done: In brief, in each experiment, 1 μg of one of a selection of compounds of the invention was injected into the tail vein of subject mice. 24 h later spleen tissue was removed from the animals and gently teased through gauze into complete medium, supplemented with 5 mM of EDTA. Cells were enriched for CD11c by anti-CD11, magnetic beads using published techniques. Once enriched, they were assayed for maturation markers using antibody staining and flow cytometry. Non-specific staining was addressed by using an antibody specific for the Fc-RIII/II receptor.

The test system of experiment [8] is p40 form of IL-12. The experiment is described as follows: Example A: IL-12 p40 ELISA as indication of DC stimulation. Format: cell-based, human.
For experiment [9], the system named is human DC. Put plainly: DC maturation in co-culture of human DC and iNKT cells (flow cytometry CD83, CD86, CD38). The format is cell-based. How it is done: as §2, §3
Immature human DC were cultured in the presence of a human iNKT cell clone with or without analogs or vehicle at different concentrations.
(§4) To compare the functions of high affinity α-GalCer, intermediate affinity threitolceramide with the known, low affinity analog OCH, the three compounds were titrated onto DC and used to present to iNKT cells. Maturation of DC and DC viability were examined after 48 h.
In general terms: A flow cytometer gives signals particle by particle.

The test system of experiment [10] is IFN-γ from the iNKT cells. Put plainly: IFN-γ ELISA of supernatants of DC/iNKT co-cultures. Format: cell-based, human. The following applies: analogs presented by DC. How it is done: as §2, §3
In experiment [11] the test system is OVA specific response. Put plainly: Example C: OVA specific CTL response in mice injected with OVA and compound (tetramer). Format: in vivo. Conditions: 400 μg OVA with 1 μg compound i.v. How it is done: Subject animals, five mice per group, received an intravenous injection of 400 μg of ovalbumin (OVA) together with 1 μg of one of the compounds of the invention under examination or an equivalent volume of PBS diluted vehicle solution. A subset of mice were injected with 25 μg of the molecule MPL (Sigma-Aldrich; extracted from Salmonella Minnesota) solubilized in PBS.
Following the injections, blood was obtained from lateral tail veins, and PBLs were isolated, using standard methods. The PBLs were then stained, directly, […], with tetrameric, H-2 Kb/OVA 257-264, H-21 Kb complexes, following Palmowski, et al., J. Immunol., 168:4391-4398 (2002), incorporated by reference. The tetramers were prepared in accordance with Whilan, et al., J. Immunol., 163:4342-4348 (1999), incorporated by reference.

Experiment [12] addresses T1, human CD1d molecules (Homo sapiens, UniProt P15813).
T1 construct: soluble human CD1d molecules; biotin (biotinylated); made in house
Put plainly: Dissociation of ligand from hCD1d, surface plasmon resonance with 9B Fab. Format: binding. The following applies: fold faster than α-GalCer. From the text: FIG. 1 Comparison of dissociation rate of OCH and α-GalCer. Dissociation of ligand from hCD1d. The indicated hCD1d (α-Gal Cer or OCH) complex was loaded onto a Surface Plasmon resonance (Biacore) sensor surface at t=0 and the amount of hCD1d remaining at the indicated time point measured using the Fab 9B.
Using the 9B Fab we looked at the rate of dissociation of all the tested compounds from soluble human CD1d molecules using surface plasmon resonance. Biotinylated CD1d-lipid complexes were immobilized to streptavidin-coated chips and the level of binding of the 9B Fab was measured over time. The loss of binding of the antibody over time was used to determine the rate of lipid dissociation from CD1d molecules.
In general terms: Surface plasmon resonance follows binding to a sensor surface in real time, without labels.

For experiment [13], the system named is DC. The experiment is described as follows: Viability of analog-pulsed DC co-cultured with iNKT cells (propidium iodide). The following applies: at concentration of maximal DC maturation. Format: cell-based, human. How it is done:
Different analogs of α-GalCer as indicated or LPS were added to co-cultures of human DC and iNKT cells. (A) Maturation of the DC was assessed after 40 h, gating on CD11c positive cells. Histograms indicate the CD83 and CD86 profiles of DC from different treatments; the percentages indicate the percentage of CD83hi mature DC and the numbers in parenthesis, the mean fluorescence intensity of the population contained within the labeled gate. DC and iNKT cells were co-cultured in the presence of different analogs of α-GalCer for 24 hours. Supernatants were analyzed using ELISA for the presence of (B) IL-12p40 released by the DC and (C) IFN-γ from the iNKT cells. All the compounds tested induced weaker but significant cytokine production than α-GalCer, with the exception of arabinitolceramide. (D) Titration of α-GalCer, OCH or threitolceramide on DCs and co-culture with iNKT cells induces DC maturation in vitro. Cells were co-cultured in the presence of the indicated concentration of analog and the percentages of DC with increased CD83/CD80 are shown. […] Viability of α-GalCer or analog-pulsed DC was assessed after 40 h co-culture in the presence of iNKT cells by flow cytometry. Cells were stained with propidium iodide and the percentage of live CD11c gated cells remaining in the culture are shown.
as §4

This is an account of results in patent US8039670B2, “Analogs of alpha galactosyceramide and uses thereof” (Ludwig Institute for Cancer Research, priority 2005, dated 2011).

T1 sequence (P15813 20-301 limits assumed): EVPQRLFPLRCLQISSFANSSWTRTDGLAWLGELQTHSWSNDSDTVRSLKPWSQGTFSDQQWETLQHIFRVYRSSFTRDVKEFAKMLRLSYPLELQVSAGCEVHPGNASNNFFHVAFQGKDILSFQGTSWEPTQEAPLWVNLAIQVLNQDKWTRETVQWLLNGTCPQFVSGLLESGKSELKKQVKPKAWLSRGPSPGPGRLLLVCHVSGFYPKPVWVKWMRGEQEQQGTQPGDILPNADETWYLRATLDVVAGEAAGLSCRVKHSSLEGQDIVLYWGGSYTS
T1 sequence (P61769 21-119 partner): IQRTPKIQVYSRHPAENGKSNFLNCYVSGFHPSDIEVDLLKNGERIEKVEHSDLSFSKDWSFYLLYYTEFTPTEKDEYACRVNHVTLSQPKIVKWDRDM

As to `CCCCCCCCCCCCCCCCCCCCCCCCCC(=O)N[C@@H](COCC(O)[C@@H](O)[C@@H](O)CO)[C@H](O)C(O)CCCCCCCCCCCCCC` (stereo partly shown) [Compound 1, Arabinitol Ceramide], in experiment [1], the “induction of DC maturation markers (CD83, CD80, CD86, CD25, CD38)” value is on record as “DC maturation markers are induced”. The tumour growth entry in experiment [2] is given as “little or no tumour growth”. The IL-12p40 released result in experiment [3] was “little IL-12p40 was detected”. Also, the “antigen-specific CD8+ T cell response” value in experiment [4] is on record as “induced a significant CD8^+ T cell response after 6 days, although less potently than α-GalCer”. In addition, in experiment [5] (compared with OCH), the “skewing of cytokine response to Th2” value is listed as “Neither compound showed a skewed Th2 cytokine response”. Moreover, the “potency of cytokine induction compared with α-GalCer” value in experiment [5] (equivalent doses) is given as “less potent than α-GalCer at equivalent doses”. For the same compound, the “cytokine release in serum (IL-4, IFN-γ, IL-12p40/70)” value in experiment [5] (wild type mice, 1 μg i.v., 2, 6 and 18-24 h) is “detected in the serum with a similar time-course to that seen with α-GalCer”. In experiment [6], the “OVA specific antibody response, adjuvant effect compared with MPL” value is “more effective as adjuvants than MPL”. In addition, in experiment [7], the “induction of CD86 on spleen DC in vivo” value is on record as “induced CD86 in vivo similarly”. Also, the “IL-12 potency, fold less potent than Compound 3” value in experiment [8] was “approximately 1000 fold”. The “DC maturation (upregulation of CD83, CD86 and CD38)” value in [9] (human DC with iNKT cell clone, 24 hours) is given as “only weakly functional”. Further, the “IFN-γ released by the iNKT cells” value in experiment [10] is on record as “no detectable IFNγ”. In [11], the OVA specific response entry is on record as “enhancement of the OVA specific response”.

With `CCCCCCCCCCCCCCCCCCCCCCCC(=O)N[C@@H](CO[C@H]1O[C@H](CO)[C@H](O)[C@H](O)[C@H]1O)[C@H](O)[C@H](O)CCCCC` [OCH, (2S,3S,4R)-1-O-(α-D-galactopyranosyl)-N-tetracosanoyl-2-amino-1,3,4-nonanetriol], in experiment [12], the “rate of dissociation from hCD1d relative to α-GalCer” value turned out to be 3.9 fold. For the same compound, the “DC viability (propidium iodide negative) compared with α-GalCer” value in [13] was “significantly greater proportion of DC were propidium iodide negative”. In experiment [9] (titration on DC, 48 h), the “concentration inducing maximal DC maturation” value worked out at 67 ng/mL.
